For 16 compounds, TGI and GI50 results are on record in PubChem BioAssay (NCI).

Test systems include SNB-19 CNS; HCC-2998 colon; MOLT-4 leukemia; RXF 393 renal; SK-MEL-5 melanoma; COLO 205 colon; LOX IMVI melanoma; BT-549 breast; DU-145 prostate; NCI/ADR-RES ovarian.
Assay in all cases: NCI anticancer screen, dose series, 48 h

SMILES strings stand for the structures. Where “and” joins values, the source holds several entries; their conditions need not be identical. Equal entries are not always repeated.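 Results reflect a 48-hour exposure of cells in 96-well plates to compound at five concentrations. GI50 marks 50% less growth. TGI denotes the concentration required for complete inhibition of growth.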 Bounds are passed on as bounds.

As to `NC(=S)N/N=C/C(O[C@@H](/C=N/NC(N)=S)CO)n1cnc2c(N)ncnc21` (some centres undefined), the TGI in the test with SNB-19 CNS was over 100 µM; with HCC-2998 colon it was over 100 µM; in the test on MOLT-4 leukemia, over 100 µM; in the test with RXF 393 renal, over 100 µM; in the test on SK-MEL-5 melanoma, over 100 µM; in the test with COLO 205 colon, over 75.9 µM. Besides, the TGI in the test on LOX IMVI melanoma was over 100 µM.
`CCN(CC)CCN1C(=O)c2c(c3c4cccc(Cl)c4n(C4OC(CO)C(OC)C(O)C4O)c3c3[nH]c4c(Cl)cccc4c23)C1=O` (centres undefined): the GI50 is 0.104 nM and < 29.9 nM and < 10 nM in the test on HCC-2998 colon; under 0.1 nM in the test on MOLT-4 leukemia; under 0.0001 µM in the test on RXF 393 renal; under 0.0001 µM with LOX IMVI melanoma. The TGI was 1.66 µM in the test on BT-549 breast and 84.5 nM in the test with DU-145 prostate.
For the compound `COc1ccc(C(=O)C(c2ccc(OC)cc2)C2(O)C(=O)Nc3c(Cl)cc(Cl)cc32)cc1` (centres undefined), the TGI in the test with SNB-19 CNS amounted to 56 µM; in the test on MOLT-4 leukemia it was 36.2 µM; in the test on RXF 393 renal, 39.6 µM; in the test with SK-MEL-5 melanoma, 34.7 µM; in the test on COLO 205 colon, 74.3 µM; in the test with LOX IMVI melanoma, 44 µM.
`O=C(CC(=O)N1N=C(n2ccc3ccccc32)CC1c1ccccc1)Nc1ccccc1Cl` (centres undefined): the TGI with SNB-19 CNS, in the test with HCC-2998 colon, in the test with MOLT-4 leukemia, in the test on RXF 393 renal, in the test on COLO 205 colon and in the test with LOX IMVI melanoma was over 100 µM in each case.
Take `C=C1C2CCCC1C1(S(C)(=O)=O)CCCCC21O` (centres undefined): the TGI with SNB-19 CNS, in the test with HCC-2998 colon, with MOLT-4 leukemia, in the test with SK-MEL-5 melanoma and with COLO 205 colon was over 100 µM each time.
For the compound `CCP(C)(=O)CC`, the TGI with SNB-19 CNS, in the test on HCC-2998 colon, in the test on MOLT-4 leukemia, with RXF 393 renal, in the test with SK-MEL-5 melanoma and in the test on COLO 205 colon was over 100 µM in each case. For the same compound, in the test with LOX IMVI melanoma, the TGI is over 100 µM.
Turning to `[CH3][Ge]([CH3])([CH2]CC#N)[S]c1ccccc1`, the GI50 with SNB-19 CNS is 18 µM; in the test with HCC-2998 colon, 38.5 nM; in the test with MOLT-4 leukemia, 3580 nM; with RXF 393 renal, 11.8 µM; with SK-MEL-5 melanoma, 26 µM; with COLO 205 colon, 17.5 µM. Also, the GI50 with LOX IMVI melanoma is 4.36 µM. Besides, the TGI in the test on SNB-19 CNS is 37.3 µM; in the test on HCC-2998 colon, over 100 µM; in the test on MOLT-4 leukemia, 17.6 µM; with RXF 393 renal, 27 µM; in the test with SK-MEL-5 melanoma it was 75.9 µM; in the test with COLO 205 colon, 52.4 µM. In the test with LOX IMVI melanoma, this compound displayed a TGI of 16.9 µM.
With `COc1c(CC(C)=O)c2ccccc2n1C(C)=O`, the TGI in the test on SNB-19 CNS, with HCC-2998 colon, with MOLT-4 leukemia, in the test with RXF 393 renal and with COLO 205 colon was over 100 µM each time.
In the case of `O=C1NC(c2cccc3ccccc23)Nc2ccc(Cl)cc21` (centres undefined), the TGI with SNB-19 CNS was over 100 µM; in the test with HCC-2998 colon it was 0.285 µM and 0.0607 µM; in the test on NCI/ADR-RES ovarian it was 0.0115 µM; in the test with MOLT-4 leukemia it was 0.00987 µM; in the test on RXF 393 renal it was 0.0261 µM; with COLO 205 colon it was 0.0175 µM and 0.0795 µM. For the same compound, the TGI is 14.6 µM in the test on LOX IMVI melanoma; 169 nM and 1430 nM in the test on DU-145 prostate.
With `Nc1nc2c(ncn2C2OC(CO)C(O)C2O)c(=O)o1` (centres undefined), the TGI in the test on SNB-19 CNS, with HCC-2998 colon, in the test on RXF 393 renal, with SK-MEL-5 melanoma, in the test with COLO 205 colon and in the test with LOX IMVI melanoma was over 100 µM in each case. In the test on DU-145 prostate, this compound yielded a TGI of over 100000 nM.
As to `c1ccc(-c2sc(-c3ccccc3)c3c2C(c2ccccc2)c2c(-c4ccccc4)sc(-c4ccccc4)c2C3c2ccccc2)cc1` (centres undefined), the TGI with SNB-19 CNS, with HCC-2998 colon, in the test with RXF 393 renal, in the test on SK-MEL-5 melanoma, in the test on COLO 205 colon and in the test with LOX IMVI melanoma was over 100 µM throughout.
On to `O=C1CCC2(c3ccccc3)OCC([C@@H](O)c3ccccc3)N12` (some centres undefined), for which the TGI in the test with SNB-19 CNS, with RXF 393 renal, in the test on SK-MEL-5 melanoma, with COLO 205 colon and with LOX IMVI melanoma was over 100 µM each time.
Regarding `CCCCCCCCCCCCCCCC(=O)OCC1OC(OCCCC)[C@H](O[C@@H]2OC(C)C(OC(=O)CCC)C(O)C2O)C(O)C1O` (some centres undefined), the GI50 is 15.4 µM in the test on SNB-19 CNS; 18 µM in the test on NCI/ADR-RES ovarian; 22.3 µM in the test on RXF 393 renal; 17.7 µM with SK-MEL-5 melanoma; 23.4 µM with BT-549 breast; 17.8 µM with COLO 205 colon. Besides, the values for the GI50 with LOX IMVI melanoma and with DU-145 prostate were 20 µM and 19.7 µM, respectively. In addition, the TGI in the test with SNB-19 CNS amounted to 32.8 µM; in the test with NCI/ADR-RES ovarian it was 32.3 µM; with RXF 393 renal, 61.2 µM; with SK-MEL-5 melanoma, 34.2 µM; in the test on BT-549 breast it was 41.7 µM; in the test on COLO 205 colon, 37.2 µM. Further, the TGI with LOX IMVI melanoma was 44 µM; with DU-145 prostate, 35000 nM.
With `O=C(Nc1ccc(Nc2ccc(NC(=O)c3ccccc3)c3c2C(=O)c2ccccc2C3=O)c2c1C(=O)c1ccccc1C2=O)c1ccccc1`, the TGI in the test on SNB-19 CNS, with HCC-2998 colon, in the test with MOLT-4 leukemia, in the test with RXF 393 renal, in the test with SK-MEL-5 melanoma and in the test with COLO 205 colon was over 100 µM each time.
Take `Cc1cc(C)c([O-])c(-[n+]2c(-c3ccccc3)cc(-c3ccccc3)cc2-c2ccccc2)c1`: the TGI with SNB-19 CNS is 21 µM; in the test with HCC-2998 colon it was 13.6 µM; in the test on MOLT-4 leukemia it was over 100 µM; with RXF 393 renal, 20.2 µM; in the test with SK-MEL-5 melanoma, 5.71 µM; in the test with COLO 205 colon it was 12.2 µM. In the test with LOX IMVI melanoma, this compound registered a TGI of 11.1 µM.
On to `CCN(CC)CCOc1ccc(/C(=C(\C)Cc2ccc(OC)cc2)c2ccc(O)cc2)cc1`, for which the GI50 in the test on SNB-19 CNS was 2.08 µM; in the test on HCC-2998 colon, 1910 nM; with NCI/ADR-RES ovarian it was 2.43 µM; with MOLT-4 leukemia, 1500 nM; in the test with RXF 393 renal it was 1.51 µM; in the test on SK-MEL-5 melanoma, 1.63 µM. Moreover, the GI50 in the test on COLO 205 colon is 1.71 µM; with LOX IMVI melanoma, 1.74 µM; with DU-145 prostate, 2.14 µM. The TGI with SNB-19 CNS amounted to 4.77 µM; with HCC-2998 colon, 3.46 µM; with NCI/ADR-RES ovarian, 7.74 µM; with MOLT-4 leukemia, 3.52 µM; in the test on RXF 393 renal it was 2.91 µM; in the test with SK-MEL-5 melanoma, 3 µM. For the same compound, the TGI came to 3.42 µM in the test on COLO 205 colon, 3.17 µM in the test on LOX IMVI melanoma and 5000 nM with DU-145 prostate.
